Measurements taken from ChEMBL document CHEMBL1697781, “Assessment of the health effects of chemicals in humans: II. Construction of an adverse effects database for QSAR modeling” (Curr Drug Discov Technol, 2004).

Assays:
Details in all cases: human; call rule not given here
Hepatotoxicity [1] = assay: FDA HLAED, serum glutamic oxaloacetic transaminase (SGOT) increase
Hepatotoxicity [2] = assay: FDA HLAED, lactate dehydrogenase (LDH) increase
Hepatotoxicity [3] = assay: FDA HLAED, gamma-glutamyl transferase (GGT) increase
Hepatotoxicity [4] = assay: FDA HLAED, liver enzyme composite activity
Hepatotoxicity [5] = assay: FDA HLAED, serum glutamic pyruvic transaminase (SGPT) increase
Hepatotoxicity [6] = assay: FDA HLAED, alkaline phosphatase increase
Throughout, for GGT Increase - Index Value: reference of the scale not given here.
Throughout, for LDH Increase - Index Value: reference of the scale not given here.

Row | Compound | SGOT Increase - Activity Score (Hepatotoxicity [1]) | SGOT Increase - Index Value (Hepatotoxicity [1]) | SGOT Increase - Number of Reports (Hepatotoxicity [1]) | LDH Increase - Activity Score (Hepatotoxicity [2]) | LDH Increase - Index Value (Hepatotoxicity [2]) | LDH Increase - Number of Reports (Hepatotoxicity [2]) | GGT Increase - Activity Score (Hepatotoxicity [3]) | GGT Increase - Index Value (Hepatotoxicity [3]) | GGT Increase - Number of Reports (Hepatotoxicity [3]) | Composite Activity - Active (Hepatotoxicity [4]) | Composite Activity - Marginal (Hepatotoxicity [4]) | Composite Activity - Score (Hepatotoxicity [4]) | SGPT Increase - Activity Score (Hepatotoxicity [5]) | SGPT Increase - Index Value (Hepatotoxicity [5]) | SGPT Increase - Number of Reports (Hepatotoxicity [5]) | Alkaline Phosphatase Increase - Activity Score (Hepatotoxicity [6]) | Alkaline Phosphatase Increase - Index Value (Hepatotoxicity [6]) | Alkaline Phosphatase Increase - Number of Reports (Hepatotoxicity [6]) | other results
1 | O=c1[nH]cnc2c1ncn2[C@H]1CC[C@@H](CO)O1 [DIDANOSINE] | Active | 13.7 | >= 4 | Marginally Active | 3 | >= 4 | Inactive | 1.5 | < 4 | 3 | 1 | Active | Active | 12.9 | >= 4 | Active | 14.5 | >= 4 | 
2 | O=C(O)c1cc(-c2ccc(F)cc2F)ccc1O [DIFLUNISAL] | Inactive | 0.3 | < 4 | Inactive | 0 | < 4 | Inactive | 0 | < 4 |  |  |  | Inactive | 0.5 | < 4 | Inactive | 0 | < 4 | Composite Activity - Active (Hepatotoxicity [4]; Liver): 0; Composite Activity - Marginal (Hepatotoxicity [4]; Liver): 0; Composite Activity - Score (Hepatotoxicity [4]; Liver): Inactive
3 | COc1ccc([C@@H]2Sc3ccccc3N(CCN(C)C)C(=O)[C@@H]2OC(C)=O)cc1 [DILTIAZEM] | Inactive | 0.3 | >= 4 | Inactive | 0.1 | < 4 | Inactive | 0 | < 4 | 0 | 0 | Inactive | Inactive | 0.1 | < 4 | Inactive | 0.1 | < 4 | 
4 | CNCC(O)c1ccc(OC(=O)C(C)(C)C)c(OC(=O)C(C)(C)C)c1 (stereo unspecified) [DIPIVEFRIN] | Inactive | 0 | < 4 | Inactive | 0 | < 4 | Inactive | 0 | < 4 | 0 | 0 | Inactive | Inactive | 0 | < 4 | Inactive | 0 | < 4 | 
5 | CC[C@H]1OC(=O)[C@H](C)[C@@H](O[C@H]2C[C@@](C)(OC)[C@@H](O)[C@H](C)O2)[C@H](C)[C@@H](O[C@@H]2O[C@H](C)C[C@H](N(C)C)[C@H]2O)[C@](C)(O)C[C@@H](C)[C@@H]2N[C@@H](COCCOC)O[C@H]([C@H]2C)[C@]1(C)O [DIRITHROMYCIN] | Inactive | 5.4 | < 4 | Inactive | 0 | < 4 | Inactive | 2.7 | < 4 | 0 | 0 | Inactive | Inactive | 5.4 | < 4 | Inactive | 0 | < 4 | 
6 | CC(CCc1ccc(O)cc1)NCCc1ccc(O)c(O)c1 (stereo unspecified) [DOBUTAMINE] | Inactive | 0 | < 4 | Inactive | 0 | < 4 | Inactive | 0 | < 4 | 0 | 0 | Inactive | Inactive | 0 | < 4 | Inactive | 0 | < 4 | 
7 | CC(=O)O[C@@]12CO[C@@H]1C[C@H](O)[C@@]1(C)C(=O)[C@H](O)C3=C(C)[C@@H](OC(=O)[C@H](O)[C@@H](NC(=O)OC(C)(C)C)c4ccccc4)C[C@@](O)([C@@H](OC(=O)c4ccccc4)[C@H]21)C3(C)C.O.O.O [DOCETAXEL] | Inactive |  | < 4 | Inactive |  | < 4 | Inactive |  | < 4 | 0 | 0 | Inactive | Inactive |  | < 4 | Inactive |  | < 4 | 
8 | CCN[C@H]1C[C@H](C)S(=O)(=O)c2sc(S(N)(=O)=O)cc21 [DORZOLAMIDE] | Inactive | 0.2 | < 4 | Inactive | 0.1 | < 4 | Inactive | 0 | < 4 | 0 | 0 | Inactive | Inactive | 0.1 | < 4 | Inactive | 0 | < 4 | 
9 | COc1cc(CC2c3c(cc(OC)c(OC)c3OC)CC[N+]2(C)CCCOC(=O)CCC(=O)OCCC[N+]2(C)CCc3cc(OC)c(OC)c(OC)c3C2Cc2cc(OC)c(OC)c(OC)c2)cc(OC)c1OC.[Cl-].[Cl-] (stereo unspecified) [DOXACURIUM CHLORIDE] | Inactive | 0 | < 4 | Inactive | 0 | < 4 | Inactive | 0 | < 4 | 0 | 0 | Inactive | Inactive | 0 | < 4 | Inactive | 0 | < 4 | 
10 | COc1cc2nc(N3CCN(C(=O)C4COc5ccccc5O4)CC3)nc(N)c2cc1OC (stereo unspecified) [DOXAZOSIN] | Inactive | 0.3 | < 4 | Inactive | 0.2 | < 4 | Inactive | 0.2 | < 4 | 0 | 0 | Inactive | Inactive | 0.5 | >= 4 | Inactive | 0.2 | < 4 | 
11 | CCCCCc1cc(O)c2c(c1)OC(C)(C)[C@@H]1CCC(C)=C[C@@H]21 [DRONABINOL] | Inactive | 0 | < 4 | Inactive | 0 | < 4 | Inactive | 0 | < 4 | 0 | 0 | Inactive | Inactive | 0 | < 4 | Inactive | 0 | < 4 | 
12 | Clc1ccc(COC(Cn2ccnc2)c2ccc(Cl)cc2Cl)cc1 (stereo unspecified) [ECONAZOLE] | Inactive | 0 | < 4 | Inactive | 0 | < 4 | Inactive | 0 | < 4 | 0 | 0 | Inactive | Inactive | 0 | < 4 | Inactive | 0 | < 4 | 
